What was measured:
[1] = cited from earlier work
Protocol: Daptomycin is a cyclic lipopeptide antibiotic with bactericidal activity on Gram-positive bacteria discovered in 1980 [1, 2]. The Food and Drug Administration (FDA) approved its use in 2003 for treating complicated skin and skin structure infections and Staphylococcus aureus bloodstream infections, including those with right-sided infective endocarditis. In those indications, the recommended dosing regimen ranges from 4 to 6 mg/kg. Daptomycin is also used off-label in various indications, including bloodstream infections caused by Gram-positive agents others than S. aureus and bone an ...

[2] = Nonparametric population PK model of daptomycin (NPAG, Pmetrics) in the learning dataset
Text: (§1) We used two data sets: a learning set used to derive the nonparametric population model of daptomycin and a validation dataset. The learning dataset was described in a previous publication from our group, which focused on the influence of P-gp gene polymorphism on daptomycin PK (n = 81 patients). […] All patients were enrolled in a cohort study after information. This cohort study was subject to a declaration to the local Commission for Data Protection and Liberties (number 17-057) and is registered on ClinicalTrial.gov (number NCT03134521). In addition, patients’ written informed consent was obtained for P-gp genotyping, in accordance with French regulation.
(§2) Blood samples for daptomycin TDM were obtained during hospitalization or follow-up visit at the BJI center. In most patients, TDM was performed on several occasions to control drug exposure throughout therapy. At each occasion, a typical PK profile was obtained, including three plasma samples collected approximately pre-dose (trough or Cmin), 30 min and 5 to 6 h after daptomycin administration. On some occasions, only one or two samples could be obtained. Sampling times were recorded precisely in each patient. Daptomycin plasma concentrations were measured using an HPLC assay with a photodiode array detector. The method was adapted from a previous publication.
(§3) In our previous work, the final population PK model of daptomycin was built by using a parametric approach (SAEM algorithm in the Monolix software). […] We reanalyzed the original dataset in order to implement a nonparametric model into the BestDose software. The NPAG algorithm embedded into the Pmetrics package for R was used to develop the nonparametric model. […] The error model was based on the assay error pattern. The predictive performance of the final model was assessed by computing the bias and precision of model-based individual predictions (see below). The model was then imported into the Windows version of the BestDose software.

[3] = Daptomycin TDM in patients with bone and joint infection, Bayesian estimation with nonparametric model in BestDose (validation dataset)
Text: as §1, §2, §3
(§4) We used an external dataset from 94 patients who received daptomycin for BJI and had TDM to validate the predictive performance of our nonparametric model in BestDose and that of the parametric model in Tucuxi. In this evaluation, we only used the daptomycin concentrations collected during the first TDM occasion in each patient.
(§5) The dosage history, covariate values, times and values of measured concentrations in each patient were entered into each program. The population model was fit to individual data by using Bayesian regression in both tools. After estimation of Bayesian posterior individual PK parameters, the estimated PK profile of each patient was obtained, including predictions of measured daptomycin concentrations.
(§6) Because daptomycin AUC is an important predictor of its antibacterial effect, we also compared the estimations of individual daily AUC (AUC24h) in the 94 patients provided by BestDose and Tucuxi.

[4] = patients who received 6 mg/kg; cited from earlier work
[5] = in vivo; cited from earlier work
Text: However, increasing daptomycin doses raises concerns about safety. It was shown that daptomycin muscular toxicity, as measured by elevation in serum creatinine phosphokinase (CPK), correlated with plasma trough concentration (Cmin).

[6] = Daptomycin TDM in patients with bone and joint infection, Bayesian estimation with parametric model (Dvorchik et al.) in Tucuxi (validation dataset)
Text: as §1, §2
As we aimed at comparing our nonparametric model to a reference model for TDM and dose adjustment, we implemented the seminal daptomycin parametric model developed by daptomycin’s manufacturer into the Tucuxi software. Tucuxi is a new software dedicated to the analysis of TDM results and individual dose adjustment (http://www.tucuxi.ch/, accessed 27 December 2021).
The two-compartment reference model from Dvorchik et al. was imported into Tucuxi, including its error model and all its covariates except body temperature, which influenced daptomycin clearance in the original model. This covariate was discarded because it is not measured consistently in all patients in routine, especially in outpatients, and its value may be altered by co-treatment such as acetaminophen. The other covariates were retained, with creatinine clearance and sex influencing daptomycin clearance and body weight influencing both intercompartment clearance and peripheral volume of distribution.
as §4, §5, §6

[7] = learning dataset n = 81, Pmetrics estimation, mean
[8] = learning dataset n = 81, Pmetrics estimation, median

In the case of `CCCCCCCCCC(=O)N[C@@H](Cc1c[nH]c2ccccc12)C(=O)N[C@H](CC(N)=O)C(=O)N[C@@H](CC(=O)O)C(=O)N[C@@H]1C(=O)NCC(=O)N[C@@H](CCCN)C(=O)N[C@@H](CC(=O)O)C(=O)N[C@H](C)C(=O)N[C@@H](CC(=O)O)C(=O)NCC(=O)N[C@H](CO)C(=O)N[C@@H]([C@H](C)CC(=O)O)C(=O)N[C@@H](CC(=O)c2ccccc2N)C(=O)O[C@@H]1C` [daptomycin, Daptomycin], the “Average ratio of area under the unbound concentration time-curve in bone over plasma” value ([1]; 10 patients) is listed as 1.08, the “Average tissue to plasma concentration ratio, bone” value ([1]; bone) is listed as 14.1% and the “Average tissue to plasma concentration ratio, synovial fluid” value ([1]; synovial fluid) is listed as 54%. The “Kpc (transfer rate constant peripheral to central), mean” value ([2]; in vivo) was 0.667 h⁻¹, the “Kpc (transfer rate constant peripheral to central), median” value ([2]; in vivo) was 0.449 h⁻¹ and the “Kcp (transfer rate constant central to peripheral), mean” value [2, 7] was 0.693 h⁻¹. For the same compound, the “Ki (non-renal component of elimination rate constant), mean” value [2, 7] was 0.060 h⁻¹, the “Ks (renal component of elimination rate constant), mean” value [2, 7] was 0.050 h^−1 per 100 mL/min of CLCR and the “Kcp (transfer rate constant central to peripheral), median” value [2, 8] was 0.287 h⁻¹. The “Ki (non-renal component of elimination rate constant), median” value [2, 8] was 0.052 h⁻¹, the “Ks (renal component of elimination rate constant), median” value [2, 8] was 0.045 h^−1 per 100 mL/min of CLCR and the “V1 (central volume of distribution), mean” value ([2]; population parameter, learning dataset n = 81, Pmetrics estimation, mean) was 6.90 L per 70 kg. For the same compound, the “V1 (central volume of distribution), median” value ([2]; population parameter, learning dataset n = 81, Pmetrics estimation, median) was 7.18 L per 70 kg, the “T1/2 (terminal half-life)” value ([3]; BestDose individual estimate, validation dataset n = 94, mean ± SD, SD) was 16.8 ± 10.6 h and the “Proportion of patients with AUC24h < 666 mg.h/L (underexposed)” value ([3]; human, in vivo) was 21.3%. For the same compound, the AUC24h ([3]; human, in vivo, 1.3 mg/kg, SD) was 975 ± 395 µg·h/mL, the “CLdap (daptomycin total body clearance)” value ([3]; human, in vivo, SD) was 0.74 ± 0.42 L/h and the Cmin ([3]; human, in vivo, SD) was 21300 ± 12900 ng/mL. The “Dmin (minimum effective dose to attain AUC24h = 666 mg.h/L at steady-state)” value ([3]; human, in vivo, SD) was 6.4 ± 2.7 mg/kg, the Predicted concentrations ([3]; human, in vivo, SD) was 46.6 ± 46.7 mg/L and the V1 ([3]; human, in vivo, SD) was 7.9 ± 3.5 L. For the same compound, the “Rate of efficacy target attainment” value [4] was 40%, the Upper bound for Cmin target (CPK elevation) [5] was 24300 ng/mL and the “T1/2 (terminal half-life)” value ([6]; Tucuxi individual estimate, validation dataset n = 94, mean ± SD) was 13.1 ± 4.7 h. The AUC24h ([6]; human, in vivo, SD) was 893 ± 345 µg·h/mL, the “CLdap (daptomycin total body clearance)” value ([6]; human, in vivo, SD) was 0.73 ± 0.29 L/h and the “Dmin (minimum effective dose to attain AUC24h = 666 mg.h/L at steady-state)” value ([6]; human, in vivo, SD) was 6.9 ± 2.8 mg/kg. The Predicted concentrations ([6]; human, in vivo, SD) was 44.3 ± 44.5 mg/L and the V1 ([6]; human, in vivo, SD) was 5.9 ± 2.4 L.

— publication PMC8779485, “Implementation and Comparison of Two Pharmacometric Tools for Model-Based Therapeutic Drug Monitoring and Precision Dosing of Daptomycin” (Pharmaceutics, 2022)
